Laboratory results: patent US12569502B2, “Use of bile acids and derivatives thereof in preparation of GPR39 agonist” (PEKING UNIVERSITY, priority 2019, dated 2026)

Legend:
[1] = test system: GPR39; assay: Confocal calcium imaging of Ghrelin receptor family; assay type: cell-based; conditions: 200 μM
[2] = target: T1, GPR39 (Homo sapiens, UniProt O43194); conditions: cell line that transiently or stably expresses GPR39; read-out: cAMP elevation EC50; cited from earlier work
T1 sequence (O43194 1-453): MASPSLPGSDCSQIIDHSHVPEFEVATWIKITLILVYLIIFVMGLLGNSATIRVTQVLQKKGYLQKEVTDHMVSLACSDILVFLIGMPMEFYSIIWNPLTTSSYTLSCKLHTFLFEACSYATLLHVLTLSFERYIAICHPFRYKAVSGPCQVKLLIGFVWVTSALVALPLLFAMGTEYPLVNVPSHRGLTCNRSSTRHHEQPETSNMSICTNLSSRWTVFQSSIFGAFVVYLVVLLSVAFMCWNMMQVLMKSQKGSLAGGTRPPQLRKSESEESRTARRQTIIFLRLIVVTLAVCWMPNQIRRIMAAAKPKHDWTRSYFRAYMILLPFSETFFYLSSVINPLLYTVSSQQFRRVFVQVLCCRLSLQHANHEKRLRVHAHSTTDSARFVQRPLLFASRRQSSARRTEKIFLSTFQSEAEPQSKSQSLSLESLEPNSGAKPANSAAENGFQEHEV

Row | Structure (SMILES) | activation of GPR39 (calcium imaging) [1] | EC50 [2] [µM]
1 | C[C@H](CCC(=O)O)[C@H]1CC[C@H]2[C@@H]3CC[C@@H]4C[C@H](OS(=O)(=O)O)CC[C@]4(C)[C@H]3CC[C@]12C [LCAS] | may be activated | 
2 | [Zn+2] [Zinc ions, reference compound] |  | 7.4
